Source: paper PMC3001897, “High-Throughput Chemical Screen Identifies a Novel Potent Modulator of Cellular Circadian Rhythms and Reveals CKIα as a Clock Regulatory Kinase” (PLoS Biology, 2010)
pIC50: −log10 of the molar value.

Legend:
cultured cells = system: cultured cells; design: method as in PMID 16983144, PMID 15767683, PMID 17876059; conditions: ref [14],[16]–[17]; cited from earlier work
CKIα = CKIα (Homo sapiens, UniProt P48729); experiment: In vitro kinase assay, CKIα; assay type: biochemical; design: purchased Invitrogen PV3850
Protocol: (§1) The CKIδ, CKIα, CDK7, and ERK2 kinase assays were performed on 384-well plates (10 µl volume). The reaction mixture was as follows: for CKIδ, 2 ng/µl CKIδ (Millipore, 14-520), 50 µM peptide substrate RKKKAEpSVASLTSQCSYSS corresponding to human PER2 Lys659-Ser674 [47], and CKI buffer (40 mM Tris, 10 mM MgCl2, 0.5 mM DTT, 0.1 mg/ml BSA, pH 7.5); for CKIα, 1 ng/µl CKIα (Invitrogen, PV3850), 50 µM CKI peptide substrate (Anaspec, 60547-1), and CKI buffer; for CDK7, 5 ng/µl CDK7 (Millipore, 14-476), 100 µM Cdk7/9 peptide substrate (Millipore, 12-526), and CKI buffer; for ERK2, 1.5 ng/µl ERK2 (Millipore, 14-550), 0.8 µg/µl MBP (Millipore, 13-104), and ERK buffer (50 mM Tris, 10 mM MgCl2, 0.5 mM DTT, 1 mM EGTA, pH 7.5). Five hundred nl of compound was added to the mixture (final 5% DMSO), and the reaction was started by adding ATP (final 5 µM). After incubation at 30°C for 3h, 10 µl of Kinase-Glo Luminescent Kinase Assay reagent (Promega) was added, and the luminescence was detected to determine remaining ATP amount. […] IC50 value was obtained by using Prism software (GraphPad Software).

Bmal1-dLuc U2OS cells [1] = experiment: U2OS cell-based circadian assay (Bmal1-dLuc luminescence rhythms); design: species or system human; conditions: Bmal1-dLuc U2OS cells; for Effect on circadian period: various concentrations; for Period effect compared with longdaysin: Figure S10
Protocol: (§2) The compound screen was done with the high-throughput circadian assay system as described previously. In brief, Bmal1-dLuc U2OS cells were suspended in the culture medium (DMEM supplemented with 10% fetal bovine serum, 0.29 mg/ml L-glutamine, 100 units/ml penicillin, and 100 µg/ml streptomycin) and plated onto 384-well white solid-bottom plates at 20 µl (2,000 cells) per well. After 2 d, 50 µl of the explant medium (DMEM supplemented with 2% B27, 10 mM HEPES, 0.38 mg/ml sodium bicarbonate, 0.29 mg/ml L-glutamine, 100 units/ml penicillin, 100 µg/ml streptomycin, 0.1 mg/ml gentamicin, and 1 mM luciferin, pH 7.2) was dispensed to each well, followed by the application of 500 nl of compounds (dissolved in DMSO; final 0.7% DMSO). The plate was covered with an optically clear film and set to luminescence monitoring system equipped with a CCD imager (ViewLux, Perkin Elmer). The luminescence was recorded every 2 h for 3–4 days. In follow-up studies, the luminescence was recorded every 100 min by using a microplate reader (Infinite M200, Tecan). The period parameter was obtained from the luminescence rhythm by curve fitting program CellulaRhythm or MultiCycle (Actimetrics), both of which gave similar results.

CDK7 = biological target: T1, CDK7 (Homo sapiens, UniProt P50613); experiment: In vitro kinase assay, CDK7; assay type: biochemical
T1 construct: purchased Millipore 14-476
Protocol: as §1

ERK2 = biological target: T2, ERK2 (Homo sapiens, UniProt P28482); experiment: In vitro kinase assay, ERK2; assay type: biochemical
T2 construct: purchased Millipore 14-550
Protocol: as §1

CKIδ = CKIδ (Homo sapiens, UniProt P48730); experiment: In vitro kinase assay, CKIδ; assay type: biochemical; design: purchased Millipore 14-520
Protocol: as §1

Bmal1-dLuc U2OS cells [2] = experiment: Cytotoxicity in the U2OS circadian assay; assay type: cell-based, human
Protocol: as §2

SCN explants = system: SCN explants; design: method as in PMID 18448638; conditions: ref [59]; cited from earlier work

T2 sequence (P28482 whole entry, species assumed): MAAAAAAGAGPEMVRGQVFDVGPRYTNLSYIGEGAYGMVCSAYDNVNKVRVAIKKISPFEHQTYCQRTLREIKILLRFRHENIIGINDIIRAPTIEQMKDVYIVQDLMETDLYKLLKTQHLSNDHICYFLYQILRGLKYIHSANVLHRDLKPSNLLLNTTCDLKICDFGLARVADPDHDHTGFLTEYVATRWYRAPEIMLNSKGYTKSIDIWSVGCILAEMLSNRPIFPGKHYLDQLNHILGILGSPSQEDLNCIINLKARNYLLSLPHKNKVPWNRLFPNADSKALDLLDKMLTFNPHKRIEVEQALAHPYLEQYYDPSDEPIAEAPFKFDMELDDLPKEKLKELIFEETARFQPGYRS
Chain of CKIα (P48729 whole entry): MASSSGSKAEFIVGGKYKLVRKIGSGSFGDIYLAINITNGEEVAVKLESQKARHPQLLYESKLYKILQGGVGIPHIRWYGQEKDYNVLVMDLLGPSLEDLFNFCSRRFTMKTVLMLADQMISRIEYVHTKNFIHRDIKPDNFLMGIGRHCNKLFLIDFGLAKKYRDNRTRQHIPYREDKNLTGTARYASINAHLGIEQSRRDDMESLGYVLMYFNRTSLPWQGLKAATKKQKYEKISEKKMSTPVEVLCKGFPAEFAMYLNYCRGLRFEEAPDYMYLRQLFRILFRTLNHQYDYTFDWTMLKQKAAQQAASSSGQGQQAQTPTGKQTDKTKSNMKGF
Chain of CKIδ (P48730 whole entry, species assumed): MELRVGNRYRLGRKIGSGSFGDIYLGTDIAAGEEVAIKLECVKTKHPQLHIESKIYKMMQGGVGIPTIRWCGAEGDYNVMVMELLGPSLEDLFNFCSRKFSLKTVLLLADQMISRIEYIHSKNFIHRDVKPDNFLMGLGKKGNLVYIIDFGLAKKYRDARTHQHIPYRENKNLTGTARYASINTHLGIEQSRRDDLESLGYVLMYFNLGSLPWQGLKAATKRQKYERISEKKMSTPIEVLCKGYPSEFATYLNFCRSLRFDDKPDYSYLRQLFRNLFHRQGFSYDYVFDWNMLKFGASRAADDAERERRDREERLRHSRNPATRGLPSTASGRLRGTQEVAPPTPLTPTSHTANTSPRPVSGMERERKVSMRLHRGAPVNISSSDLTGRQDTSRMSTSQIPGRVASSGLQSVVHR
T1 sequence (P50613 whole entry): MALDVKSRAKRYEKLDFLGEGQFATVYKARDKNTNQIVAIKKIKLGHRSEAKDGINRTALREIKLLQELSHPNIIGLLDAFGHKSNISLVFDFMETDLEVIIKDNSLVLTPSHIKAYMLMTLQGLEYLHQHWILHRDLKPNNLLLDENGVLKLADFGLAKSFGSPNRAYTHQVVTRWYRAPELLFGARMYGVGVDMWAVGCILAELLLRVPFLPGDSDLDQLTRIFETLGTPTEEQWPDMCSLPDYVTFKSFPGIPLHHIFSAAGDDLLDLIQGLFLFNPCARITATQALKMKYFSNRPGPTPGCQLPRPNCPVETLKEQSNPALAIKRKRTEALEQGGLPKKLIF
T1 sequence (P51946 whole entry partner): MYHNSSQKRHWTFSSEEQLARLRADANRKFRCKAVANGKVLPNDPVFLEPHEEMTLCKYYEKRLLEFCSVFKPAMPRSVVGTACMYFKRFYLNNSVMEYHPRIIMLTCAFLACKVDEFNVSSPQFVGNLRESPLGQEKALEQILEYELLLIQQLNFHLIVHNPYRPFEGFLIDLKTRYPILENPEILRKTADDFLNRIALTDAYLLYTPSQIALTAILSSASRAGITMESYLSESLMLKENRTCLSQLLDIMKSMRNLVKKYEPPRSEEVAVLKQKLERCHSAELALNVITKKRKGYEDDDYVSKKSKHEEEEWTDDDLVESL
T1 sequence (P51948 whole entry partner): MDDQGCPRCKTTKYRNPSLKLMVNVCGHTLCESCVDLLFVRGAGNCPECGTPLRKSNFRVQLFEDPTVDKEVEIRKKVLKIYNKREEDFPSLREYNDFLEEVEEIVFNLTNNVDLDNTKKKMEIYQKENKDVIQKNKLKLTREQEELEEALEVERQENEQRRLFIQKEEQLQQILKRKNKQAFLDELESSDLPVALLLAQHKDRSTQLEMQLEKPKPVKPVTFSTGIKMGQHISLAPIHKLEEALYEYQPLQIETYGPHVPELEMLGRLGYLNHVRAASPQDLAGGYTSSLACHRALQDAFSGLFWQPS

## NCCNS(=O)(=O)c1ccc(Cl)c2ccncc12 [CKI-7]
Cultured cells
  Effect on period in cultured cells: period lengthening

## CC(C)n1cnc2c(NCc3ccccc3)ncnc21 [Compound 1, N-benzyl-9-isopropyl-9H-purin-6-amine]
CKIα; ATP 5 µM, from Figure 2E
  pIC50: 4.64
CKIα; in vitro kinase assay
  Potency against CKIα relative to longdaysin (times less): ~3 times
Bmal1-dLuc U2OS cells [1]
  Effect on circadian period: strongly lengthened the period in a dose-dependent manner
Bmal1-dLuc U2OS cells [1]; from Figure 1B
  Concentration for period change, 5 h: 4.4 µM
  Concentration for period change, 10 h: 17 µM
  Concentration for period change, 15 h: 38 µM
CDK7; ATP 5 µM, from Figure 2E
  pIC50: 4.54
CDK7; in vitro kinase assay
  Inhibition of CDK7 compared with longdaysin: inhibited CDK7 similarly to longdaysin
ERK2; ATP 5 µM, from Figure 2E
  pIC50: 3.80
ERK2; in vitro kinase assay
  Potency against ERK2 relative to longdaysin (times less): ~3 times
CKIδ; ATP 5 µM, from Figure 2E
  pIC50: 4.68
CKIδ; in vitro kinase assay
  Potency against CKIδ relative to longdaysin (times less): ~3 times

## CC(=O)NCCCCCCNc1nc(NCc2cccc(C(F)(F)F)c2)c2ncn(C(C)C)c2n1 [Compound 2, N-(6-(9-isopropyl-6-(3-(trifluoromethyl)benzylamino)-9H-purin-2-ylamino)hexyl)acetamide]
Bmal1-dLuc U2OS cells [1]
  Effect on circadian period: retained the period lengthening effect

## NC(=O)c1ccc(-c2nc(-c3ccc4c(c3)OCCO4)c(-c3ccccn3)[nH]2)cc1 [Compound D4476, reference compound]
Cultured cells
  Effect on period in cultured cells: period lengthening
Bmal1-dLuc U2OS cells [2]
  Concentration showing cytotoxicity: 71 µM
Bmal1-dLuc U2OS cells [1]
  Period effect compared with longdaysin: smaller period effects

## N#CC(=C(/N)Sc1ccccc1N)/C(C#N)=C(/N)Sc1ccccc1N [Compound U0126]
SCN explants
  Effect on circadian rhythms in SCN explants: Attenuation of the circadian rhythms

## COc1cc(OC)c(C=C2C(O)=Nc3ccccc32)c(OC)c1 [IC261, reference compound]
Cultured cells
  Effect on period in cultured cells: period lengthening
Bmal1-dLuc U2OS cells [1]
  Period effect compared with longdaysin: smaller period effects
